Experimental data taken from patent publication US20150224170A1 (priority 2010, published 2015).

Assays:
[1] = system: Sindbis virus (SINV, TE strain); assay type: cell-based
[2] = system: SINV-infected differentiated CSM14.1 cells; assay type: cell-based, rat; conditions: 10 uM
NFAT3 = assay type: cell-based, rat; conditions: 10 uM

Compound: CCCOc1ccccc1-c1nc2nn[nH]c2c(=O)[nH]1 [zaprinast]
- viral titers / viral replication versus untreated SINV infection (in words) [1]: tended to slightly increase viral titers at most time points
- viability / survival of infected cells [2]: did not detectably affect cell survival
- cytoplasmic NFAT3 (Western blot) (NFAT3): remained constant at all timepoints
- effect on NFAT3 activation (NFAT3): no effect
- nuclear NFAT3 (Western blot) (NFAT3): remained constant at all timepoints
